Measurements reported in patent US20200237766A1, “PKM2 ACTIVATORS IN COMBINATION WITH REACTIVE OXYGEN SPECIES FOR TREATMENT OF CANCER” (TOLERO PHARMACEUTICALS, INC., priority 2017, published 2020).
Read-outs that look alike come from different tables or passages of the source.

Target: PKM2 (Homo sapiens, UniProt P14618)
Test: PKM2 activation biochemical assay (AC50 / max. response vs fructose 1,6-bisphosphate)
Conditions: for Max. Resp. (%): % maximum response in a biochemical assay as compared with Fructose 1,6-bisphosphate
[1] = biochemical assay, read-out: PKM2 AC50

Sequence of PKM2 (P14618 whole entry): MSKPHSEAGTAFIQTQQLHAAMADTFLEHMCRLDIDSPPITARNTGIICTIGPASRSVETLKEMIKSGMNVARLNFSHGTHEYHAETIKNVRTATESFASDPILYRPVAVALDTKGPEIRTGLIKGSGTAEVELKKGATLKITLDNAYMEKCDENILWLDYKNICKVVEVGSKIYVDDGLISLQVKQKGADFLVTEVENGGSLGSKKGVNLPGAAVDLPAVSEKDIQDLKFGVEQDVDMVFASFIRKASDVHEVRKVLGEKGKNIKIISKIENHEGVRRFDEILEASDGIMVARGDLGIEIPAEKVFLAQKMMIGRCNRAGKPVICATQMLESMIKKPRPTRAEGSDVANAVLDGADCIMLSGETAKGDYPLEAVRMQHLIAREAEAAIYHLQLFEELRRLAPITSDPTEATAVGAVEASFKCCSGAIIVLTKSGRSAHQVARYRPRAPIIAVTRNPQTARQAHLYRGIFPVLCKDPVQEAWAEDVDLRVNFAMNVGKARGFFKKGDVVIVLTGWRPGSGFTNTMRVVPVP

| SMILES | Max. Resp. (%) | AC50 [1] | AC50 |
| --- | --- | --- | --- |
| CCN(CC)CCN(Cc1cccc(N)c1)C(=O)c1cc(C(F)(F)F)n[nH]1 [Compound 154] | 100% | 1430 nM |  |
| CCNCCN(Cc1ccccc1F)C(=O)c1cc(C(F)(F)F)n[nH]1 [Compound 155] | 100% | 2150 nM |  |
| O=C(c1cc(C(F)(F)F)n[nH]1)N(CCN1CCCC1)Cc1ccccc1F [Compound 158] | 100% | 265 nM |  |
| CCN(CC)CCN(Cc1ccccc1Cl)C(=O)c1cc(C(F)(F)F)n[nH]1 [Compound 159] | 100% | 73 nM |  |
| CCN(CC)CCN(Cc1cccc2[nH]cnc12)C(=O)c1cc(C(F)(F)F)n[nH]1 [Compound 160] | 100% | 825 nM |  |
| CCN(CC)CCN(Cc1cccc2[nH]ccc12)C(=O)c1cc(C(F)(F)F)n[nH]1 [Compound 161] | 100% | 76 nM |  |
| O=C(c1cc(C(F)(F)F)n[nH]1)N(CCN1CCCC1)Cc1ccccc1Cl [Compound 162] | 100% |  | 107 nM |
| O=C(c1cc(C(F)(F)F)n[nH]1)N(CCN1CCCC1)Cc1cccc2nc[nH]c12 [Compound 163] | 100% | 1080 nM |  |
| O=C(c1cc(C(F)(F)F)n[nH]1)N(CCN1CCCC1)Cc1cccc2[nH]ccc12 [Compound 164] | 100% | 113 nM |  |
| O=C(c1cc(C(F)(F)F)n[nH]1)N(CCN1CCCC1)Cc1ccc(Cl)cc1Cl [Compound 165] | 50% | 45000 nM |  |
| CCN(CC)CCN(Cc1cccc(Cl)c1Cl)C(=O)c1cc(C(F)(F)F)n[nH]1 [Compound 167] | 100% | 186 nM |  |
| CCN(CC)CCN(Cc1cc(Cl)ccc1Cl)C(=O)c1cc(C(F)(F)F)n[nH]1 [Compound 168] | 100% | 97 nM |  |
| CCN(CC)CCN(Cc1c(Cl)cccc1Cl)C(=O)c1cc(C(F)(F)F)n[nH]1 [Compound 169] | 100% | 66 nM |  |
| CCN(CC)CCN(Cc1ccc(F)cc1Cl)C(=O)c1cc(C(F)(F)F)n[nH]1 [Compound 170] | 100% |  | 505 nM |
| CCN(CC)CCN(Cc1cc(F)ccc1Cl)C(=O)c1cc(C(F)(F)F)n[nH]1 [Compound 171] | 100% |  | 88 nM |
| CCN(CC)CCN(Cc1c(F)cccc1Cl)C(=O)c1cc(C(F)(F)F)n[nH]1 [Compound 172] | 100% | 94 nM |  |
| O=C(c1cc(C(F)(F)F)n[nH]1)N(CCN1CCCCC1)Cc1ccccc1Cl [Compound 173] | 100% | 66 nM |  |
| O=C(c1cc(C(F)(F)F)n[nH]1)N(CCN1CCOCC1)Cc1ccccc1Cl [Compound 174] | 100% | 1490 nM |  |
| CCN(CC)CCN(Cc1ccccc1Cl)C(=O)c1cc(Br)n[nH]1 [Compound 175] | 100% |  | 305 nM |
| O=C(c1cc(C(F)(F)F)n[nH]1)N(CCN1CCCC1)Cc1c(F)cccc1Cl [Compound 177] | 100% | 180 nM |  |
| O=C(c1cc(C(F)(F)F)n[nH]1)N(CCN1CCCC1)Cc1c(Cl)cccc1Cl [Compound 178] | 100% | 126 nM |  |
| O=C(c1cc(C(F)(F)F)n[nH]1)N(CCN1CCCCC1)Cc1c(F)cccc1Cl [Compound 179] | 100% | 133 nM |  |
| O=C(c1cc(C(F)(F)F)n[nH]1)N(CCN1CCCCC1)Cc1c(Cl)cccc1Cl [Compound 180] | 100% | 154 nM |  |
| CC(CN(Cc1ccccc1Cl)C(=O)c1cc(C(F)(F)F)n[nH]1)N1CCCC1 (stereo not shown) [Compound 181] | 100% | 430 nM |  |
| CCN(CC)CCN(Cc1cccc(F)c1Cl)C(=O)c1cc(C(F)(F)F)n[nH]1 [Compound 182] | 100% |  | 109 nM |
| CCN(CC)CCN(Cc1cc(N)ccc1Cl)C(=O)c1cc(C(F)(F)F)n[nH]1 [Compound 183] | 100% | 185 nM |  |
